Read-outs that look alike come from different tables or passages of the source.
What was measured:
[1] = test system: mTORC2 activity: phosphorylated AKT Ser473 (pAKT S473) in PC3 cells; test: mTOR target engagement assay, immunofluorescent cell-based, mTORC2 readout; details: Homo sapiens, PC-3, 1.5 h, 90 min treatment
Experimental: The target engagement of mTOR kinase inhibitors was evaluated using an immunofluorescent cell-based assay. In this assay, inhibition of mTORC1 activity was measured by the reduction in the level of phosphorylated 4E-BP1Thr37/46 (p4E-BP1 Thr37/46), and inhibition of mTORC2 activity was measured by the reduction of phosphorylated AKTSer473 (pAKT S473).
PC3 cells (prostate tumor cell-line that contains a mutation in the tumor suppressor PTEN, that promotes the phosphorylation and activation of AKT and 4E-BP1) were used in the immunofluorescence assay. PC3 cells were seeded on 384 well plates (black clear bottom, Matrix #4332) overnight. PC3 cells were then treated with 40 μl of the serially diluted test compounds (in 5% fetal bovine serum, F12 medium containing 0.25% DMSO) for ninety minutes at 37° C. The test compound solution was removed, and the plates were washed gently two times with 25 μl phosphate buffered saline (PBS). The cells were fixed by adding 25 μl of Prefer reagent (from Anatech LTD, Cat#414, a glyoxal fixative for fixing proteins within a cell) for sixty minutes followed by three washes with PBS. 5% Goat serum in PBS/0.3% Triton was used to block non-specific binding (60 minutes).
The primary antibodies targeting pAKT S473 and p4E-BP1 Thr37/46 were diluted into PBS/0.3% Triton and incubated with the cells overnight at 4° C. The antibodies targeting pAKTS473 (Cat#4085, Cell signaling) and p4E-BP1 Thr37/46 (Cat#2855, Cell signaling) were used at a 1:100 dilution. Plates were washed three times with PBS/0.1% Tween 20 before adding the secondary antibody at a 1:200 dilution. (goat anti-rabbit containing a fluorescent label, Alexa Fluor 488, Cat#A11008, Invitrogen) in PBS/0.3% Triton for 60 minutes.
Finally, the plates were washed three times with PBS/0.1% Tween 20 and the fluorescent intensity was read using an Analyst HT from Molecular Devices. The fluorescent intensity values from the serially diluted compound treatment group were analyzed using the Xlfit 4 program ([…]) (Formula 205: Y=Bottom+(Top-Bottom)/(1+(IC50/X)^Hillslope) to generate the IC50 value. Where Top is the maximum signal without Compound (+DMSO only) and Bottom represents maximum inhibition. Y is the fluorescence at some compound concentration. The control used to determine the fluorescent intensities for 100% pAKT S473 or 100% phosphorylated p4E-BP1 Thr37/46 were measured from untreated wells that contained only DMSO, instead of test compound.

human mTOR enzyme = human mTOR enzyme (Homo sapiens, UniProt P42345); test: HTRF mTOR enzyme (kinase) assay; format: biochemical; details: 5 μM ATP, 0.2 μM GST-S6K, read-out: hMTOR IC50
Experimental: Methods: An HTRF mTOR enzyme assay was developed to assess the compounds' inhibitory activity. The mTOR assay buffer contained 10 mM Hepes (pH 7.4), 50 mM NaCl, […] BSA, 50 mM […], 10 mM MnCl2 and 0.5 mM DTT. […] 20 ng of human mTOR enzyme (<5% pure was preincubated with the compound for 10 minutes followed by the addition of 5 μM ATP and 0.2 μM GST-S6K (Zhang et al., Protein Expression and Purification 46, pp 414-420 (2006)). The reaction was incubated for one hour at 30° C. Anti phospho p70-S6K(Thr389) (˜1.7 ng/well, anti-phospho-p70S6K-cryptate (Pho-p70S6-Kin-K cat#64CUSKAY, from Cisbio)) and anti GST-XL665 (1:1 Ratio with the substrate GST-S6K, anti GST-XL665, cat#61GSTXLB) Cisbio) were added after the reaction was stopped. The plates were read (PHERAstar, BMG) at least 2 hours after adding the anti phospho p70-S6K and the anti GST-XL665.
IC50 DETERMINATIONS: Dose-response curves were plotted from the inhibition data generated, each in duplicate, from 8 point serial dilutions of inhibitory compounds. Concentration of compound was plotted against the HTRF em665/em590 ratio signal. To generate IC50 values, the dose-response curves were fitted to a standard sigmoidal curve and IC50 values were derived by nonlinear regression analysis.

human mTOR enzyme, sequence (P42345 1360-2549 limits assumed): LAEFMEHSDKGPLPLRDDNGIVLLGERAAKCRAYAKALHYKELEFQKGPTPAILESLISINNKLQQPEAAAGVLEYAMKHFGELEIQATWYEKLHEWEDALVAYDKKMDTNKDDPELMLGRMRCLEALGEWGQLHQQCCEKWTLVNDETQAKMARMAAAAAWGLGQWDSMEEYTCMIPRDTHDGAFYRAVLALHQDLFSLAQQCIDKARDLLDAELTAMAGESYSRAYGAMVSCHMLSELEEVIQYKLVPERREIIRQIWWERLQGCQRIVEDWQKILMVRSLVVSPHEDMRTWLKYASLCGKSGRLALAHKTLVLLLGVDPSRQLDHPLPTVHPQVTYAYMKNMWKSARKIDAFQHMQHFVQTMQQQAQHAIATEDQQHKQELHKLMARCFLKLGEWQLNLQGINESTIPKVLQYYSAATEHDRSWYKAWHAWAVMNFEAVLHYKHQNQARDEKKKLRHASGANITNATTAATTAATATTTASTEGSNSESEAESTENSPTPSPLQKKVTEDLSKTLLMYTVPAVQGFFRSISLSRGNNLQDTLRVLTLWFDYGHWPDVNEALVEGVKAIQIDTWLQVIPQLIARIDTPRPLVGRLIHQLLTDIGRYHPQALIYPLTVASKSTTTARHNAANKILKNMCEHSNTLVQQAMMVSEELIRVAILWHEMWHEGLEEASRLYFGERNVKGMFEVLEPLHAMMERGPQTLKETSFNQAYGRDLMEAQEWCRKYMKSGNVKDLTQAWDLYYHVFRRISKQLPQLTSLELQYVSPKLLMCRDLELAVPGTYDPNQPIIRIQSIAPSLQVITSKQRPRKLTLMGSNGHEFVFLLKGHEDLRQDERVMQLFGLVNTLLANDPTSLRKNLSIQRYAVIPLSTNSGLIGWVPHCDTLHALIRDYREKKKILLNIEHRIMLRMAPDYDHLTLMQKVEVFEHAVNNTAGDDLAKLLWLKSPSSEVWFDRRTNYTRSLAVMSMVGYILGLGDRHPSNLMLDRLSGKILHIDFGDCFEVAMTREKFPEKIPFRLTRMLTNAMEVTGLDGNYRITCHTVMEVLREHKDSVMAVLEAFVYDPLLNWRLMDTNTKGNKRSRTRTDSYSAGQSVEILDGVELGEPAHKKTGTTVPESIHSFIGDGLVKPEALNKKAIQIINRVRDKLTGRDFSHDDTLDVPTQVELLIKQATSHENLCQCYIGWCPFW

SMILES	IC50 ([1]; rated class)	IC50 (human mTOR enzyme; rated class)	IC50 ([1]; numeric value)	IC50 (human mTOR enzyme; numeric value)
COC[C@]1(C(=O)O)CC[C@H](c2nc3c(-c4cnc5ccc(F)cc5c4)cnn3c(N)c2C(C)=O)CC1 [Compound 22, (1R,4R)-4-(6-acetyl-7-amino-3-(6-fluoroquinolin-3-yl)pyrazolo[1,5-a]pyrimidin-5-yl)-1-(methoxymethyl)-cyclohexane-carboxylic acid]	0.1 to 1 µM	0.001 to 0.1 µM	–	–
COC[C@]1(C(=O)O)CC[C@@H](c2nc3c(-c4cnc5ccc(F)cc5c4)cnn3c(N)c2C(C)=O)CC1 [Compound 23, (1S,4S)-4-(6-acetyl-7-amino-3-(6-fluoroquinolin-3-yl)pyrazolo[1,5-a]pyrimidin-5-yl)-1-(methoxymethyl)-cyclohexane-carboxylic acid]	2 to 5 µM	0.001 to 0.1 µM	–	–
COCCOCC1(C(=O)O)CCC(c2nc3c(-c4ccc(-c5ccccc5)nc4)cnn3c(N)c2C(C)=O)CC1 (centres unmarked) [Compound 24, 4-(6-acetyl-7-amino-3-(6-phenylpyridin-3-yl)pyrazolo[1,5-a]pyrimidin-5-yl)-1-((2-methoxyethoxy)methyl)cyclohexane-carboxylic acid]	0.1 to 1 µM	0.001 to 0.1 µM	–	–
CS(=O)(=O)C1(C(=O)O)CCC(c2nc3c(-c4cnn(-c5ccccc5)c4)cnn3c(N)c2Br)CC1 (centres unmarked) [Compound 27, 4-(7-amino-6-bromo-3-(1-phenyl-1H-pyrazol-4-yl)pyrazolo[1,5-a]pyrimidin-5-yl)-1-(methylsulfonyl)cyclohexanecarboxylic acid]	2 to 5 µM	0.001 to 0.1 µM	–	–
CO[C@]1(C(=O)O)CC[C@H](c2nc3c(-c4cnc5ccc(F)cc5c4)cnn3c(N)c2Br)CC1 [Compound 32, (1S,4S)-4-(7-amino-6-bromo-3-(6-fluoroquinolin-3-yl)pyrazolo[1,5-a]pyrimidin-5-yl)-1-methoxycyclohexane-carboxylic acid]	0.1 to 1 µM	0.001 to 0.1 µM	–	–
CO[C@]1(C(=O)O)CC[C@@H](c2nc3c(-c4cnc5ccc(F)cc5c4)cnn3c(N)c2Br)CC1 [Compound 33, (1R,4R)-4-(7-amino-6-bromo-3-(6-fluoroquinolin-3-yl)pyrazolo[1,5-a]pyrimidin-5-yl)-1-methoxycyclohexane-carboxylic acid]	1 to 2 µM	0.001 to 0.1 µM	–	–
CO[C@]1(C(=O)O)CC[C@H](c2nc3c(-c4cnc5ccc(F)cc5c4)cnn3c(N)c2C(C)=O)CC1 [Compound 38, (1S,4S)-4-(6-acetyl-7-amino-3-(6-fluoroquinolin-3-yl)pyrazolo[1,5-a]pyrimidin-5-yl)-1-methoxycyclohexane-carboxylic acid]	0.1 to 1 µM	0.001 to 0.1 µM	–	–
CO[C@]1(C(=O)O)CC[C@@H](c2nc3c(-c4cnc5ccc(F)cc5c4)cnn3c(N)c2C(C)=O)CC1 [Compound 39, (1R,4R)-4-(6-acetyl-7-amino-3-(6-fluoroquinolin-3-yl)pyrazolo[1,5-a]pyrimidin-5-yl)-1-methoxycyclohexane-carboxylic acid]	0.1 to 1 µM	0.001 to 0.1 µM	–	–
COCCO[C@]1(C(=O)O)CC[C@H](c2nc3c(-c4cnn(-c5ccccc5)c4)cnn3c(N)c2C(C)=O)CC1 [Compound 54, (1S,4S)-4-(6-acetyl-7-amino-3-(1-phenyl-1H-pyrazol-4-yl)pyrazolo[1,5-a]pyrimidin-5-yl)-1-(2-methoxyethoxy)cyclohexanecarboxylic acid]	5 to 15 µM	0.001 to 0.1 µM	–	–
COCCO[C@]1(C(=O)O)CC[C@@H](c2nc3c(-c4cnn(-c5ccccc5)c4)cnn3c(N)c2C(C)=O)CC1 [Compound 55, (1R,4R)-4-(6-acetyl-7-amino-3-(1-phenyl-1H-pyrazol-4-yl)pyrazolo[1,5-a]pyrimidin-5-yl)-1-(2-methoxyethoxy)cyclohexanecarboxylic acid]	0.1 to 1 µM	0.001 to 0.1 µM	–	–
COCCO[C@]1(C(=O)O)CC[C@H](c2nc3c(-c4ccc(-c5ccccc5)nc4)cnn3c(N)c2C(C)=O)CC1 [Compound 56, (1S,4S)-4-(6-acetyl-7-amino-3-(6-phenylpyridin-3-yl)pyrazolo[1,5-a]pyrimidin-5-yl)-1-(2-methoxyethoxy) cyclohexanecarboxylic acid]	5 to 15 µM	0.001 to 0.1 µM	–	–

Further lines, results first:

IC50 ([1]; rated class)	IC50 (human mTOR enzyme; rated class)	IC50 ([1]; numeric value)	IC50 (human mTOR enzyme; numeric value)	SMILES
0.1 to 1 µM	0.001 to 0.1 µM	–	–	COCCO[C@]1(C(=O)O)CC[C@@H](c2nc3c(-c4ccc(-c5ccccc5)nc4)cnn3c(N)c2C(C)=O)CC1 [Compound 57, (1R,4R)-4-(6-acetyl-7-amino-3-(6-phenylpyridin-3-yl)pyrazolo[1,5-a]pyrimidin-5-yl)-1-(2-methoxyethoxy) cyclohexanecarboxylic acid]
0.1 to 1 µM	0.001 to 0.1 µM	–	–	CC(=O)c1c(N)n2ncc(-c3ccc(-c4ccccc4)nc3)c2nc1[C@H]1CC[C@@](OCCN2CCOCC2)(C(=O)O)CC1 [Compound 58, (1R,4R)-4-(6-acetyl-7-amino-3-(6-phenylpyridin-3-yl)pyrazolo[1,5-a]pyrimidin-5-yl)-1-(2-morpholinoethoxy) cyclohexanecarboxylic acid]
0.1 to 1 µM	0.001 to 0.1 µM	–	–	COCCO[C@]1(C(=O)O)CC[C@@H](c2nc3c(-c4ccc(-c5nccs5)nc4)cnn3c(N)c2C(C)=O)CC1 [Compound 60, (1R,4R)-4-(6-acetyl-7-amino-3-(6-(thiazol-2-yl)pyridin-3-yl)pyrazolo[1,5-a]pyrimidin-5-yl)-1-(2-methoxyethoxy) cyclohexanecarboxylic acid]
0.1 to 1 µM	0.001 to 0.1 µM	–	–	COCCO[C@]1(C(=O)O)CC[C@@H](c2nc3c(-c4ccc(-c5cscn5)nc4)cnn3c(N)c2C(C)=O)CC1 [Compound 62, (1R,4R)-4-(6-acetyl-7-amino-3-(6-(thiazol-4-yl)pyridin-3-yl)pyrazolo[1,5-a]pyrimidin-5-yl)-1-(2-methoxyethoxy) cyclohexanecarboxylic acid]
1 to 2 µM	0.001 to 0.1 µM	–	–	COCCO[C@]1(C(=O)O)CC[C@@H](c2nc3c(-c4ccc(-c5ccccc5)nc4)cnn3c(N)c2SC)CC1 [Compound 63, (1R,4R)-4-(7-amino-6-(methylthio)-3-(6-phenylpyridin-3-yl)pyrazolo[1,5-a]pyrimidin-5-yl)-1-(2-methoxyethoxy)cyclohexanecarboxylic acid]
1 to 2 µM	0.001 to 0.1 µM	–	–	Nc1c(Br)c([C@H]2CC[C@@](OCCN3CCOCC3)(C(=O)O)CC2)nc2c(-c3ccc(-c4ccccc4)nc3)cnn12 [Compound 65, (1R,4R)-4-(7-amino-6-bromo-3-(6-phenylpyridin-3-yl)pyrazolo[1,5-a]pyrimidin-5-yl)-1-(2-morpholinoethoxy) cyclohexanecarboxylic acid]
1 to 2 µM	0.001 to 0.1 µM	–	–	Nc1c(Br)c([C@H]2CC[C@](OCCN3CCOCC3)(C(=O)O)CC2)nc2c(-c3ccc(-c4ccccc4)nc3)cnn12 [Compound 66, (1S,4S)-4-(7-amino-6-bromo-3-(6-phenylpyridin-3-yl)pyrazolo[1,5-a]pyrimidin-5-yl)-1-(2-morpholinoethoxy) cyclohexanecarboxylic acid]
–	–	0.87 µM	0.0117 µM	Nc1c(Br)c([C@H]2CC[C@]3(CC2)NC(=O)NC3=O)nc2c(-c3ccc(-c4ccccc4)nc3)cnn12 [Compound 72, 8-(7-amino-6-bromo-3-(6-phenylpyridin-3-yl)pyrazolo[1,5-a]pyrimidin-5-yl)-1,3-diazaspiro[4.5]decane-2,4-dione]

Reference: patent US8883801B2, “Substituted pyrazolo[1,5-a]pyrimidines as mTOR inhibitors” (Merck Sharp & Dohme Corp., priority 2010, dated 2014)
